In patent US20240279298A1 (BEIJING TUO JIE BIOPHARMACEUTICAL CO. LTD., priority 2021, published 2024):
≈ marks a conversion by molar mass, not a printed value. Each block holds one compound with its values, some of them ahead of it. Where a SMILES comes first, the peptide text is derived from it. [ ]: non-standard residue; d: D form. Aib = CC(C)(N)C(=O)O

Key:
[1] = Maximum solubility in phosphate buffer pH 7.4; assay type: physicochemical; conditions: phosphate buffer pH 7.4, room temperature
[2] = target: T1, human glucagon receptor (GCGR) (Homo sapiens, UniProt P47871); assay: Agonist activity assay for GCGR (cAMP HTRF); assay type: cell-based; conditions: normalized by the activity of the native glucagon
T1 construct: expressed in transfected cells
Procedure: The activation of GCGR by related compounds will stimulate the formation of cyclic adenosine monophosphate (cAMP) in cells. Thus, the receptor activity can be monitored by cAMP production in proper cells expressing the receptor. […] The cells were passaged at least once for subsequent tests. Before testing, the cells were trypsinized, centrifuged, washed once, and resuspended in serum-free DMEM/F12 medium. The cell density was adjusted, and the cells were plated in a 96-well plate at a density of 2,500 cells/5 μL/well. […] The mixture was mixed well by moderate vibration, and incubated for 1 hour at room temperature away from light.

[3] = system: normal rats (blood glucose); assay: Efficacy in normoglycemic rat model; assay type: in vivo, SD rats; conditions: normal rats, 2 nmol/kg subcutaneous single dose
[4] = Pharmacokinetics in rats after subcutaneous injection; assay type: in vivo, SD rats; conditions: plasma
Procedure: (1) Animals were grouped according to Table 12, and were given free access to water and food before administration.
• Sampling time: 0 min pre-dose, and 2 min, 4 min, 7 min, 10 min, 20 min, 40 min, 1 h and 2 h post-dose. Blood was collected from rats by jugular catheterization.
• 1) 0.2 mL of whole blood was collected at each time point into a centrifuge tube containing EDTA-K2; • 2) The blood samples were centrifuged at 4000 g at 4° C. for 5 min, and separated to give the plasma; • 3) The plasma samples were cryopreserved at −80° C.
The mixture was vortexed for 5 min and centrifuged at a low temperature for 10 min. 100 μL of the supernatant was taken and added to 100 μL of 0.1% formic acid aqueous solution. The mixture was mixed well, and loaded on the instrument for analysis; • Liquid chromatography and mass spectrometry analysis: LC-30A liquid chromatography system (Shimadzu, Japan) and API 5500 liquid chromatography-triple quadrupole mass spectrometer (Analyst Software data processing system, AB Sciex, USA) were used. The chromatographic column was nanomicro Unisil C18aq (4.6 mm×150 mm, 5 μm) chromatographic column; the column temperature was 40° C.; the mobile phase A was 0.1% formic acid aqueous solution, and the mobile phase B was 0.1% formic acid in acetonitrile; the flow rate was 0.5 mL/min; the injection volume was 20 μL; the gradient is shown in Table 13 below. The mass spectrum was obtained using an electrospray ionization (ESI) source, a positive ion analysis mode and a multi reaction monitoring (MRM) scanning mode.
The plasma concentration of the test compounds was measured by HPLC-MS/MS. The plasma concentration-time curve was plotted, and the pharmacokinetic parameters were calculated by PKSolver.

[5] = system: rat erythrocyte suspension; assay: Hemolysis assay; conditions: for Hemolysis rate: 37° C., 1 hour
human liver microsomes = assay: Stability in human liver microsome incubation system
in vitro [6] = conditions: human
[7] = Chemical stability in phosphate buffer (UPLC purity); assay type: physicochemical; conditions: phosphate buffer pH 7.4, 1 mg/mL
[8] = system: insulin-induced hypoglycemia rat model; assay: Efficacy in insulin-induced hypoglycemic rat model; assay type: in vivo, SD rats; conditions: insulin 0.65 IU/kg at T0; 12 nmol/kg subcutaneous at 45 min
in vitro [9] = conditions: human; remark: listed apart in the source
human kidney microsomes = assay: Stability in human kidney microsome incubation system

T1 sequence (P47871 26-477): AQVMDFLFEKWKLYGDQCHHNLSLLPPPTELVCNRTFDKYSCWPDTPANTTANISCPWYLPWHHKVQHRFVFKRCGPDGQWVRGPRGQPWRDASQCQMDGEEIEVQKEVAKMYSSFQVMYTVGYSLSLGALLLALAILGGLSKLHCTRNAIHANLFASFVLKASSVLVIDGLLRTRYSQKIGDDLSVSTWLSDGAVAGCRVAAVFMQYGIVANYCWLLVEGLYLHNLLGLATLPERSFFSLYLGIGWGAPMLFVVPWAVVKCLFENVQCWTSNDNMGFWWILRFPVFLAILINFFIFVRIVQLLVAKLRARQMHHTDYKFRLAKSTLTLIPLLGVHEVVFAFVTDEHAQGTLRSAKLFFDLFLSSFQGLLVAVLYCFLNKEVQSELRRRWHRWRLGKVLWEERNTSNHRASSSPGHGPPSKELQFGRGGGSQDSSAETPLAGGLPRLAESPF

solubility [1]: > 16400 µg/mL
SMILES: CC(C)C[C@H](NC(=O)[C@H](Cc1ccc(O)cc1)NC(=O)[C@H](CCCCN)NC(=O)[C@H](CO)NC(=O)[C@H](Cc1ccc(O)cc1)NC(=O)[C@H](CC(=O)O)NC(=O)[C@H](CO)NC(=O)[C@@H](NC(=O)[C@H](Cc1ccccc1)NC(=O)[C@@H](NC(=O)CNC(=O)[C@H](CCC(N)=O)NC(=O)[C@H](CO)NC(=O)[C@@H](N)Cc1c[nH]cn1)[C@@H](C)O)[C@@H](C)O)C(=O)N[C@@H](CCC(=O)O)C(=O)N[C@@H](CO)C(=O)NC(C)(C)C(=O)N[C@@H](CCCNC(=N)N)C(=O)N[C@@H](C)C(=O)N[C@@H](CCC(=O)O)C(=O)N[C@@H](CC(=O)O)C(=O)N[C@@H](Cc1ccccc1)C(=O)N[C@H](C(=O)N[C@@H](CCCNC(=N)N)C(=O)N[C@@H](Cc1c[nH]c2ccccc12)C(=O)N[C@@H](CC(C)C)C(=O)N[C@@H](CCC(=O)O)C(=O)N[C@@H](CO)C(=O)N[C@H](C(=O)O)[C@@H](C)O)C(C)C [Compound 38] (H-HSQGTFTSDYSKYLES[Aib]RAEDFVRWLEST-OH)

solubility at 5 min [1]: 1620 µg/mL (≈ 472 µM)
Relative activity [2]: 371%
SMILES: CC(C)C[C@H](NC(=O)[C@H](Cc1ccc(O)cc1)NC(=O)[C@H](CCCCN)NC(=O)[C@H](CO)NC(=O)[C@H](Cc1ccc(O)cc1)NC(=O)[C@H](CC(=O)O)NC(=O)[C@H](CO)NC(=O)[C@@H](NC(=O)[C@H](Cc1ccccc1)NC(=O)[C@@H](NC(=O)CNC(=O)[C@H](Cc1c[nH]cn1)NC(=O)[C@H](CO)NC(=O)[C@@H](N)Cc1c[nH]cn1)[C@@H](C)O)[C@@H](C)O)C(=O)N[C@@H](CC(=O)O)C(=O)N[C@@H](CC(C)C)C(=O)NC(C)(C)C(=O)N[C@@H](CCCNC(=N)N)C(=O)N[C@@H](C)C(=O)N[C@@H](CCC(N)=O)C(=O)N[C@@H](CCC(=O)O)C(=O)N[C@@H](Cc1ccccc1)C(=O)N[C@H](C(=O)N[C@@H](CCC(N)=O)C(=O)N[C@@H](Cc1c[nH]c2ccccc12)C(=O)N[C@@H](CC(C)C)C(=O)N[C@@H](CCC(=O)O)C(=O)N[C@@H](CO)C(=O)N[C@H](C(=O)O)[C@@H](C)O)C(C)C [Compound 43] (H-HSHGTFTSDYSKYLDL[Aib]RAQEFVQWLEST-OH)

solubility at 5 min [1]: > 2070 µg/mL
Relative activity [2]: 253%
SMILES: CC(C)C[C@H](NC(=O)[C@H](Cc1ccc(O)cc1)NC(=O)[C@H](CCCCN)NC(=O)[C@H](CO)NC(=O)[C@H](Cc1ccc(O)cc1)NC(=O)[C@H](CC(=O)O)NC(=O)[C@H](CO)NC(=O)[C@@H](NC(=O)[C@H](Cc1ccccc1)NC(=O)[C@@H](NC(=O)CNC(=O)[C@H](Cc1c[nH]cn1)NC(=O)[C@H](CO)NC(=O)[C@@H](N)Cc1c[nH]cn1)[C@@H](C)O)[C@@H](C)O)C(=O)N[C@@H](CC(=O)O)C(=O)N[C@@H](CC(C)C)C(=O)NC(C)(C)C(=O)N[C@@H](CCCNC(=N)N)C(=O)N[C@@H](C)C(=O)N[C@@H](CCC(N)=O)C(=O)N[C@@H](CCC(=O)O)C(=O)N[C@@H](Cc1ccccc1)C(=O)N[C@H](C(=O)N[C@@H](CCC(=O)O)C(=O)N[C@@H](Cc1c[nH]c2ccccc12)C(=O)N[C@@H](CC(C)C)C(=O)N[C@@H](CCC(=O)O)C(=O)N[C@@H](CO)C(=O)N[C@H](C(=O)O)[C@@H](C)O)C(C)C [Compound 47] (H-HSHGTFTSDYSKYLDL[Aib]RAQEFVEWLEST-OH)

AUClast/D ([4]; male SD rats, single SC injection, Dasiglucagon 5 mg/kg, 40 5.06 mg/kg): 260 h·ng/mL per mg/kg
Tmax ([4]; male, SD, rat, sc): 10 min
half-life ([4]; male, SD, rat, sc, male SD rats, single SC injection, Dasiglucagon 5 mg/kg, 40 5.06 mg/kg): 30.6 min
bioavailability ([4]; male, SD, rat, sc, read-out: Bioavailability (F %)): 84.6%
Percentage residues 0 min (human liver microsomes; With NADPH): 100.0%
Percentage residues 0 min (human liver microsomes; Without NADPH): 100.0%
Percentage residues 15 min (human liver microsomes; Without NADPH): 91.65%
Percentage residues 30 min (human liver microsomes; Without NADPH): 88.78%
Percentage residues 60 min (human liver microsomes; Without NADPH): 71.74%
Percentage residues 120 min (human liver microsomes; Without NADPH): 53.48%
T½ (human liver microsomes; Without NADPH, 1 μM): 125.37 min
remaining at 0.25 h, 1 μM (in vitro [6]; human liver microsomes): 91.8%
remaining at 0.5 h, 1 μM (in vitro [6]; human liver microsomes): 91.6%
remaining at 1 h, 1 μM (in vitro [6]; human liver microsomes): 81.1%
remaining at 2 h, 1 μM (in vitro [6]; human liver microsomes): 59.2%
half-life at 1 μM (in vitro [6]; liver microsomes): 162 min
Purity Day 7 ([7]; 4° C.): 98.66%
Purity Day 14 ([7]; 4° C.): 98.84%
Purity Day 21 ([7]; 4° C.): 99.85%
Purity Day 28 ([7]; 4° C.): 99.68%
Purity Day 7 ([7]; 25° C.): 98.07%
Purity Day 14 ([7]; 25° C.): 96.73%
Purity Day 21 ([7]; 25° C.): 96.68%
Purity Day 28 ([7]; 25° C.): 96.81%
Purity Day 0 ([7]; day 0 (normalization)): 100.00%
remaining at 0.25 h, 1 μM (in vitro [9]; human kidney microsomes): 63.5%
remaining at 0.5 h, 1 μM (in vitro [9]; human kidney microsomes): 52.9%
remaining at 1 h, 1 μM (in vitro [9]; human kidney microsomes): 36.6%
remaining at 2 h, 1 μM (in vitro [9]; human kidney microsomes): 17.7%
half-life at 1 μM (in vitro [9]; kidney microsomes): 51.3 min
solubility at 5 min [1]: > 3750 µg/mL
Percentage residues 0 min (human kidney microsomes; With NADPH): 100.0%
Percentage residues 0 min (human kidney microsomes; Without NADPH): 100.0%
Percentage residues 15 min (human kidney microsomes; Without NADPH): 73.24%
Percentage residues 30 min (human kidney microsomes; Without NADPH): 55.17%
Percentage residues 60 min (human kidney microsomes; Without NADPH): 33.12%
Percentage residues 120 min (human kidney microsomes; Without NADPH): 19.74%
T½ (human kidney microsomes; Without NADPH, 1 μM): 51.98 min
SMILES: CC(C)C[C@H](NC(=O)[C@H](Cc1c[nH]c2ccccc12)NC(=O)[C@H](CCCCN)NC(=O)[C@@H](NC(=O)[C@H](Cc1ccccc1)NC(=O)[C@H](CCC(=O)O)NC(=O)[C@H](CCC(=O)O)NC(=O)[C@H](C)NC(=O)[C@H](CCCNC(=N)N)NC(=O)[C@H](C)NC(=O)C(C)(C)NC(=O)[C@H](CC(=O)O)NC(=O)[C@H](CC(C)C)NC(=O)[C@H](Cc1ccc(O)cc1)NC(=O)[C@H](CCCCN)NC(=O)[C@H](CO)NC(=O)[C@H](Cc1ccc(O)cc1)NC(=O)[C@H](CC(=O)O)NC(=O)[C@H](CO)NC(=O)[C@@H](NC(=O)[C@H](Cc1ccccc1)NC(=O)[C@@H](NC(=O)CNC(=O)[C@H](CCC(N)=O)NC(=O)[C@H](CO)NC(=O)[C@@H](N)Cc1c[nH]cn1)[C@@H](C)O)[C@@H](C)O)C(C)C)C(=O)N[C@@H](CCC(=O)O)C(=O)N[C@@H](CO)C(=O)N[C@H](C(=O)O)[C@@H](C)O [Dasiglucagon, reference compound]
Blood glucose 15 min [3]: 9.32 mmol/L
Blood glucose 30 min [3]: 7.73 mmol/L
Blood glucose 45 min [3]: 6.87 mmol/L
Blood glucose 60 min [3]: 6.08 mmol/L
Hemolysis rate ([5]; 1 μg/mL): −4.69%
Hemolysis rate ([5]; 3 μg/mL): −4.77%
Hemolysis rate ([5]; 10 μg/mL): −4.05%
Hemolysis rate ([5]; 30 μg/mL): −5.23%
Hemolysis rate ([5]; 100 μg/mL): −5.52%
Hemolysis rate ([5]; 300 μg/mL): −4.63%
Hemolysis risk (in words) ([5]; concentrations ranging from 1 to 300 μg/mL): no significant risk of the hemolysis adverse effect was found
Blood glucose 60 min [8]: 7.00 mmol/L
Blood glucose 75 min [8]: 9.52 mmol/L
Blood glucose 90 min [8]: 8.43 mmol/L
Blood glucose 105 min [8]: 7.47 mmol/L
